Paper PMC11758266, “Lipid-Modulated, Graduated Inhibition of N-Glycosylation Pathway Priming Suggests Wide Tolerance of ER Proteostasis to Stress” (ACS Central Science, 2024)

Legend:
ATF4 [1] = test: HEK-ATF4 high-content immunofluorescence imaging assay (ER stress); format: cell-based, human; conditions: for ER stress response in the phenotypic assay (in words): HEK293 cells, 6 h, nuclear ATF4 as marker
Method: Here, the nuclear localization of the transcription factor ATF4 (which leads to subsequent expression of CHOP and cell death) was used as a phenotypic marker of ER stress (Figure 3A). Use of multi(384)-well plate format allowed wild-type HEK cells to be treated with analogues over a titrating concentration range of 0.5 nM to […] for 6 h in a quantitative manner (Figure 3C). After fixation with paraformaldehyde, high-content cellular fluorescence microscopy imaging was used to both determine the site and quantify the location of ATF4[32] (Figure 3B,C). Thus, immunofluorescent staining of the cells exploited a primary rabbit anti-ATF4 (D4B8) antibody followed by a solution containing a secondary Alexa Fluor 488-labeled goat anti-rabbit IgG along with Hoechst 33342 nuclei stain. In this way, confocal fluorescence microscopy at excitation wavelengths of 405 and 488 nm produced, as a direct primary readout, the intensity of ATF4 located in the nucleus as well as the ratio of ATF4 located between the nucleus (colocalized with Hoechst) and cytoplasm (see Figure 3B,C for representative images and the Supporting Information for channel-by-channel images). Concurrent readout of the number of stained nuclei (Hoechst nuclei stain) in live cells was also used as an internal cytotoxicity measure. This high-content method allowed detailed quantitative cellular dose responses to be determined with precision (Figure 3D). […] Consistent with ATF4 as a driver of apoptosis, this also drove cell death at higher concentrations (EC50 ∼ 10 μM) similar to those determined previously.[33] This therefore identified a clear dose–response window of more than 2 orders of magnitude over such key downstream events.
Figure 3 High-content phenotypic screen for putative ER stress inducers. (A) Schematic of the screening process. 12,000 HEK293 WT cells per well were plated into a 384-well plate and incubated at 37 °C for 24 h. Compounds were serially diluted and added to the plate and incubated for 6 h at 37 °C, at which point the cells were fixed with 4% PFA in PBS. The plates were then submitted to indirect ATF4 immunofluorescence, in which the plate was incubated with a primary anti-ATF4 (D4B8) antibody, followed by Alexa Fluor 488-labeled goat anti-rabbit secondary antibody and Hoechst 33342 dye. Plates were imaged using an OPERA-Phenix high-content imaging platform with fluorescence excitation at 405 and 488 nm. The images were analyzed, and the nuclear intensity of ATF4 for each cell was quantitatively determined (gray filled circles, left-hand axis in (D)) as well as the count of live cells (black squares, right-hand axis in (D)). Created in BioRender. https://BioRender.com/z32w873 (B) Representative section of imaging (red = nuclei, green = ATF4) for a given cellular population at a single dose (here exposed to tunicamycin at 41.2 nM). (C) Representative series panels of dose–response images after exposure to three different Tun-XE,YG analogues and DMSO control. (D) Corresponding resulting quantification of the high-throughput microscopy assay displaying the live cell count (black, right axis) and the nuclear intensity of ATF4 (gray, left axis) of tunicamycin and two lipid altered analogues, one with a large lipid at the gating position (Tun-9E,9G) and other with a short lipid at this position (Tun-8E,2G). See the Supporting Information for full details.
Supplementary Phenotypic Screening Methods
Tunicamycin analogues were tested in the HEK-ATF4 High Content Imaging assay to assess their ER stress generating ability. Wild-type HEK293 cells were plated in 384-well imaging assay plates at a density of 12,000 cells per well in growth medium (containing DMEM/F12, 10% FBS, 2 mM L-Glutamine, 100 U/mL Penicillin - 100µg/mL Streptomycin) and incubated at 37°C, 5% CO2. 24-hrs later, the medium was changed to 50 µl assay medium per well (DMEM/F12, 0.3% FBS, 2mM L-Glutamine, 100 U/mL Penicillin – 100 µg/mL […]
Streptomycin). […]

ATF4 [2] = test: ATF4 high-content imaging assay in primary human dermal fibroblasts; format: cell-based; conditions: 6 h, Figures S8–S12
Method: A targeted panel of tunicamycin analogues was tested in the ATF4 High Content Imaging assay to assess their ER stress generating ability in a primary cell line. Normal adult human dermal fibroblasts (NHDF-Ad, Lonza) were plated in a 96-well Phenoplate (PerkinElmer) at a seeding density of 10,000 cells per well in fibroblast growth medium (containing fibroblast basal medium, 10% FBS, 0.1% insulin, 0.1% hFGF-B, 0.1% Gentamicin/Amphotericin) and incubated at 37°C, 5% CO2. Treatment with pre-diluted compounds was performed after 24 hrs with final concentrations ranging from 10 µM – 5 nM (final DMSO concentration was 0.3%). Low control (0.3% DMSO final conc.) and high control (0.3 µM tunicamycin final conc.) wells were again included for assay normalization. Treated cells were incubated for 6 hrs at 37°C, 5% CO2 before fixing (4% PFA in PBS, 20 min at room temperature followed by washing (3x) with PBS). Direct ATF4 immunofluorescence staining was then performed, whereby cells were treated with a Coralite Plus 488-conjugated ATF4 Polyclonal antibody (CL488-10835, Proteintech) in a 1:100 dilution of Perm-block buffer (10% FBS, 0.3% TritonX-100 in PBS) for 2 hrs. Nuclei staining was then performed with DRAQ5 dye (ab108410, Abcam) at 1:1000 in PBS. Plates were imaged on a Leica SP8 confocal microscope equipped with 488 nm and 633 nm excitation and images were analysed using script-based algorithms as described for HEK cells above. […]

Compound	ER stress response in the phenotypic assay (in words) (ATF4 [1])	increase in ATF4 (in words) (ATF4 [2])	EC50 (ATF4 [1]; wild-type HEK293 cells, 6 h treatment, read-out: EC50, increase in ATF4 in the nucleus)
CCCCCCCCC(=O)N[C@H]1[C@@H](O[C@@H]2O[C@H](C[C@@H](O)[C@H]3O[C@@H](n4ccc(=O)[nH]c4=O)[C@H](O)[C@@H]3O)[C@H](O)[C@H](O)[C@H]2NC(=O)CCC)O[C@H](CO)[C@@H](O)[C@@H]1O [Tun-4E,9G]	did not induce any ER stress response	–	–
CCCCCCCCC(=O)N[C@H]1[C@H](O[C@H]2O[C@H](CO)[C@@H](O)[C@H](O)[C@H]2NC(=O)CC(C)C)O[C@H](C[C@@H](O)[C@H]2O[C@@H](n3ccc(=O)[nH]c3=O)[C@H](O)[C@@H]2O)[C@H](O)[C@@H]1O [Tun-9E,i5G]	did not induce ER stress	–	–
CCCCCCCCC(=O)N[C@H]1[C@H](O[C@H]2O[C@H](CO)[C@@H](O)[C@H](O)[C@H]2NC(=O)CCCCCCCC)O[C@H](C[C@@H](O)[C@H]2O[C@@H](n3ccc(=O)[nH]c3=O)[C@H](O)[C@@H]2O)[C@H](O)[C@@H]1O [Tun-9E,9G]	did not induce any ER stress response	only Tun itself leads to an increase in ATF4	–
tunicamycin [reference compound]	clear ER stress response	leads to an increase in ATF4	44 ± 3.2 nM
CCCCCCCC(=O)N[C@H]1[C@H](O[C@H]2O[C@H](CO)[C@@H](O)[C@H](O)[C@H]2NC(C)=O)O[C@H](C[C@@H](O)[C@H]2O[C@@H](n3ccc(=O)[nH]c3=O)[C@H](O)[C@@H]2O)[C@H](O)[C@@H]1O [Tun-8E,2G]	did not induce ER stress	only Tun itself leads to an increase in ATF4	–
